Test results taken from ChEMBL document CHEMBL5647692, “The novel dual PI3K/mTOR inhibitor NVP-BGT226 displays cytotoxic activity in both normoxic and hypoxic hepatocarcinoma cells” (Oncotarget, 2015).
Active and inactive are the calls of the source. The rule behind the calls is not given here. Peptide text beside a SMILES is read from it. * marks the point of attachment. Cbz = O=C(OCc1ccccc1)*; CH2F = FC*

Columns and labels:
SNU-475 [1] = assay: Induction of autophagy in human SNU-475 cells assessed as reduction in cytotoxicity at 10 to 25 uM incubated for 24 hrs by MTT assay; format: functional, cell-based; details: dose 10-25 µM
Mahlavu [2] = assay: Cytotoxicity against human Mahlavu cells assessed as reduction in cell viability at 10 uM incubated for 24 hrs in presence of BGT226 under hypoxia condition by MTT assay; format: functional, cell-based
Mahlavu [3] = assay: Induction of autophagy in human Mahlavu cells assessed as reduction in cytotoxicity at 10 to 25 uM incubated for 24 hrs by MTT assay; format: functional, cell-based; details: dose 10-25 µM
Mahlavu [4] = assay: Cytotoxicity against human Mahlavu cells assessed as reduction in cell viability at 25 uM incubated for 24 hrs in presence of BGT226 under hypoxia condition by MTT assay; format: functional, cell-based
SNU-475 [5] = assay: Cytotoxicity against human SNU-475 cells assessed as reduction in cell viability at 25 uM incubated for 24 hrs under hypoxia condition by MTT assay; format: functional, cell-based
SNU-475 [6] = assay: Cytotoxicity against human SNU-475 cells assessed as reduction in cell viability at 10 uM incubated for 24 hrs under hypoxia condition by MTT assay; format: functional, cell-based
Mahlavu [7] = assay: Cytotoxicity against human Mahlavu cells assessed as reduction in cell viability at 10 uM incubated for 24 hrs under normoxia condition by MTT assay; format: functional, cell-based
SNU-475 [8] = assay: Cytotoxicity against human SNU-475 cells assessed as reduction in cell viability at 25 uM incubated for 24 hrs in presence of BGT226 under hypoxia condition by MTT assay; format: functional, cell-based
Mahlavu [9] = assay: Cytotoxicity against human Mahlavu cells assessed as reduction in cell viability at 25 uM incubated for 24 hrs under hypoxia condition by MTT assay; format: functional, cell-based
SNU-475 [10] = assay: Cytotoxicity against human SNU-475 cells assessed as reduction in cell viability at 10 uM incubated for 24 hrs in presence of BGT226 under hypoxia condition by MTT assay; format: functional, cell-based
HepG2 = assay: Cytotoxicity against human HepG2 cells assessed as reduction in cell viability at 10 uM incubated for 24 hrs by MTT assay; format: functional, cell-based
Hep 3B2 [11] = assay: Cytotoxicity against human Hep3B cells assessed as reduction in cell viability at 10 uM incubated for 24 hrs by MTT assay; format: functional, cell-based
Mahlavu [12] = assay: Cytotoxicity against human Mahlavu cells assessed as reduction in cell growth at 10 uM incubated for 24 hrs under hypoxia condition by MTT assay; format: functional, cell-based
Hep 3B2 [13] = assay: Cytotoxicity against human Hep3B cells assessed as reduction in cell growth at 10 uM incubated for 24 hrs under hypoxia condition by MTT assay; format: functional, cell-based
Mahlavu [14] = assay: Induction of apoptosis in human Mahlavu cells assessed as late apoptotic cells at 75 uM incubated for 24 hrs by Annexin-V/7-AAD staining based muse cell analyzer method (reference value: 2.24 %); format: functional
Mahlavu [15] = assay: Induction of apoptosis in human Mahlavu cells assessed as necrotic cells at 75 uM incubated for 24 hrs by Annexin-V/7-AAD staining based muse cell analyzer method (reference value: 0.67 %); format: functional
SNU-449 [16] = assay: Induction of apoptosis in human SNU-449 cells assessed as viable cells at 75 uM incubated for 24 hrs by Annexin-V/7-AAD staining based muse cell analyzer method (reference value: 90.07 %); format: functional; details: read-out: Activity
Mahlavu [17] = assay: Induction of apoptosis in human Mahlavu cells assessed as viable cells at 75 uM incubated for 24 hrs by Annexin-V/7-AAD staining based muse cell analyzer method (reference value: 90.52 %); format: functional; details: read-out: Activity
SNU-449 [18] = assay: Induction of apoptosis in human SNU-449 cells assessed as early apoptotic cells at 75 uM incubated for 24 hrs by Annexin-V/7-AAD staining based muse cell analyzer method (reference value: 3.95 %); format: functional
SNU-449 [19] = assay: Induction of apoptosis in human SNU-449 cells assessed as necrotic cells at 75 uM incubated for 24 hrs by Annexin-V/7-AAD staining based muse cell analyzer method (reference value: 0.95 %); format: functional
SNU-449 [20] = assay: Induction of apoptosis in human SNU-449 cells assessed as late apoptotic cells at 75 uM incubated for 24 hrs by Annexin-V/7-AAD staining based muse cell analyzer method (reference value: 5.03 %); format: functional
Mahlavu [21] = assay: Induction of apoptosis in human Mahlavu cells assessed as early apoptotic cells at 75 uM incubated for 24 hrs by Annexin-V/7-AAD staining based muse cell analyzer method (reference value: 6.57 %); format: functional

## CCN(CC)CCCC(C)Nc1ccnc2cc(Cl)ccc12 (configuration not stated)
SNU-475 [1]
  Activity: Active
Mahlavu [2]
  Activity: Active
Mahlavu [3]
  Activity: Active
Mahlavu [4]
  Activity: Active
SNU-475 [5]
  Activity: Active
SNU-475 [6]
  Activity: Active
Mahlavu [7]
  Activity: Active
SNU-475 [8]
  Activity: Active
Mahlavu [9]
  Activity: Active
SNU-475 [10]
  Activity: Active

## Cn1cnc(N)c2ncnc1-2
HepG2
  Activity: inactive
Hep 3B2 [11]
  Activity: inactive
Mahlavu [12]
  Activity: inactive
Hep 3B2 [13]
  Activity: inactive

## COC(=O)C[C@H](NC(=O)[C@H](C)NC(=O)[C@@H](NC(=O)OCc1ccccc1)C(C)C)C(=O)CF (Cbz-Val-Ala-Asp(OMe)-CH2F)
Mahlavu [14]
  Activity: 3.78%
Mahlavu [15]
  Activity: 1.52%
SNU-449 [16]
  viability at 75 µM: 89.5%
Mahlavu [17]
  viability at 75 µM: 89.7%
SNU-449 [18]
  Activity: 4.6%
SNU-449 [19]
  Activity: 0.53%
SNU-449 [20]
  Activity: 5.35%
Mahlavu [21]
  Activity: 5%
